Assay results taken from patent publication US11116759B2, “Method of treating cancer” (Exelixis, Inc., priority 2011, dated 2021).

What was measured:
xenograft tumor models = experiment: Xenograft tumor models; assay type: in vivo
[1] = tested on: endothelial cells and tumor cells; experiment: Apoptosis of endothelial cells and tumor cells; assay type: cell-based
[2] = tested on: pancreatic neuroendocrine tumor; experiment: Murine pancreatic neuroendocrine tumor model; assay type: in vivo
[3] = tested on: melanoma, including ocular melanoma; experiment: Phase 2 randomized discontinuation trial in adults with melanoma (NCT00940225); assay type: in vivo, human
Method: Compound 1 was used in a Phase 2 randomized discontinuation trial study of adults with melanoma, including ocular melanoma (See NCT00940225, Abstract 371). Compound 1 was administered at a daily dose of 100 mg (125 mg salt equivalent). The study endpoints included objective response rate (ORR) per mRECIST in the lead-in stage, and progression-free survival in the randomized stage. The eligibility criteria included: (a) pathologically and radiologically confirmed diagnosis of advanced melanoma; (b) cutaneous, mucosal, or ocular subtypes; (c) up to two lines of prior systemic treatment (not including immunotherapy); (d) documented progressive disease and measurable target lesion(s) per mRECIST; and (e) no known brain metastases. Tumors were assessed by CT/MRI at baseline and every 6 weeks thereafter. Archival tumor tissue was retained for genotyping and biomarker analysis.

[4] = Phase 1 clinical study, tolerability; assay type: in vivo; details: most common adverse events fatigue, diarrhea, anorexia, rash, palmar-plantar erythrodysesthesia

COc1cc2nccc(Oc3ccc(NC(=O)C4(C(=O)Nc5ccc(F)cc5)CC4)cc3)c2cc1OC [Compound 1, N-(4-{[6,7-bis(methyloxy)quinolin-4-yl]oxy}phenyl)-N′-(4-fluorophenyl)cyclopropane-1,1-dicarboxamide]
Effect on tumor (xenograft tumor models): causes tumor regression
Induction of apoptosis [1]: rapidly induces apoptosis
Overall survival [2]: substantially improves overall survival
Tumor invasiveness and metastasis [2]: significantly reduces tumor invasiveness and metastasis
Patients with objective tumor shrinkage ([3]; all enrolled patients with melanoma, daily dose of 100 mg): sixty
Best response ([3]; ocular melanoma Patients 5, 6, 14, 15, 18, 20, 22, 26, 28 and 29 (FIGS. 4A and 4B)): stable disease
Patients with evidence of objective tumor regression ([3]; patients with ocular cancer, six months): 48%
Disease control rate ([3]; patients with ocular cancer, week 12): 14%
Patients showing a positive disease control rate ([3]; patients with ocular melanoma who were tested (FIG. 3)): Eight of the fourteen
Partial response observed ([3]; patients with ocular melanoma, week 6): One
Tolerability [4]: generally well-tolerated
